Assay: Accelerated stability study of pranoprofen batches (impurity content by HPLC)
Type: physicochemical
Details: 40° C.±2° C., RH 75%±5%; for Maximum single impurity: maximum unknown single impurity
Procedure: In the present invention, unless otherwise specified, the accelerated experiment is carried out under the conditions of 40° C.±2° C. and RH75%±5% in accordance with the regulations in the “Technical Guidelines for Stability Research of Chemical Drugs”; preferably, an average value of 3 samples measured in parallel is taken.
In the present invention, unless otherwise specified, the content of each impurity or total impurities is measured by high performance liquid chromatography. Preferably, the chromatographic conditions comprise: using octadecylsilane-bonded silica gel as filler (5 μm, 250 mm×4.6 mm); using 0.05 mol/L sodium perchlorate aqueous solution-methanol (90:10, adding perchloric acid to adjust pH to 3.2) as mobile phase A, methanol as mobile phase B, following the gradient elution in Table 10, flow rate of 1.0 ml/min, column temperature of 40° C., detection wavelength of 275 nm.
In accordance with the relevant regulations in the “Technical Guidelines for Stability Research of Chemical Drugs”, the samples of the above three batches were taken and tested for 6 months under the conditions of 40° C.±2° C. and RH 75%±5%. And at the end of the 0th, 1st, 2nd, 3rd and 6th months of the experiment, the samples were taken for the detection of indicators.
The experiment was carried out according to the high performance liquid chromatography (the General Rule 0512 of the Chinese Pharmacopoeia, 2015 edition), in which octadecylsilane bonded silica gel was used as filler (5 μm, 250 mm×4.6 mm); 0.05 mol/L sodium perchlorate aqueous solution-methanol (90:10, adjusted to pH 3.2 by adding perchloric acid) was used as mobile phase A, methanol was used as mobile phase B, and gradient elution was carried out according to the table below, flow rate was 1.0 ml/min, column temperature was 40° C., and detection wavelength was 275 nm.
10 μl of the test solution was precisely taken and injected into the liquid chromatograph. If there were impurity peaks in the chromatogram of the test solution, a single impurity must not exceed 0.1%, and the sum of impurities must not exceed 0.5%.
The impurity objects to be detected were total impurity, impurity A, impurity C, impurity D, impurity L and maximum single impurity; and the detection conditions were the same as above.
Preparation of test solution: 50 mg of this product was taken, dissolved in a solvent (acetonitrile-water=1:1) and diluted to 50 ml to obtain the test solution.
Control stock solution of mixed impurities: 10.0 mg of each of impurities A, C, D, and L were weighed, respectively, and added to 10.0 ml volumetric flask, respectively, then added with methanol for dissolution and dilution to the mark, 1.0 ml of each of the above solutions was taken and added to 100.0 ml volumetric flask, then added with solvent for dilution to the mark to obtain the control stock solution of impurities.
Control solution of mixed impurities: 1.0 ml of the test solution was accurately taken, and added with solvent for dilution to 100.0 ml; 1.0 ml of the above solution was accurately taken, added with 1.0 ml of the control stock solution of mixed impurities, and added with solvent to 10.0 ml to obtain the control solution of mixed impurities.
Preparation of system suitability solution: 1.0 ml of the control stock solution of mixed impurities was accurately taken, and added with the test solution for dilution to 10 ml to obtain the system suitability solution.
Preparation of control solution: 1.0 ml of the test solution was taken, and added with solvent for dilution to 10.0 ml; 1.0 ml of the above solution was taken, and added with solvent for dilution to 100.0 ml to obtain the control solution.

## CC(C(=O)O)c1ccc2c(c1)Cc1cccnc1O2 (stereo not drawn) [Compound 20190201, pranoprofen]
0th month
  Impurity A: Impurity A: 0.07%
  Impurity D: Impurity D: 0.02%
  Impurity L: Impurity L: 0.01%
  Total impurities: Total impurities: 0.10%
1st month after acceleration
  Impurity A: Impurity A: 0.07%
  Impurity D: Impurity D: 0.03%
  Impurity L: Impurity L: 0.01%
  Total impurities: Total impurities: 0.11%
2nd month after acceleration
  Impurity A: Impurity A: 0.07%
  Impurity D: Impurity D: 0.02%
  Impurity L: Impurity L: 0.01%
  Total impurities: Total impurities: 0.10%
3rd month after acceleration
  Impurity A: Impurity A: 0.07%
  Impurity D: Impurity D: 0.02%
  Impurity L: Impurity L: 0.02%
  Total impurities: Total impurities: 0.11%
6th month after acceleration
  Impurity A: Impurity A: 0.10%
  Impurity C: Impurity C 0.03%
  Impurity D: Impurity D: 0.01%
  Impurity L: Impurity L: 0.02%
  Total impurities: Total impurities: 0.24%
  Maximum single impurity: impurity: 0.08%

## CC(C(=O)O)c1ccc2c(c1)Cc1cccnc1O2 (stereo not drawn) [Compound 20190101, pranoprofen]
0th month
  Impurity A: Impurity A: 0.05%
  Impurity D: Impurity D: 0.02%
  Impurity L: Impurity L: 0.02%
  Total impurities: Total impurities: 0.09%
1st month after acceleration
  Impurity A: Impurity A: 0.03%
  Impurity D: Impurity D: 0.02%
  Impurity L: Impurity L: 0.01%
  Total impurities: Total impurities: 0.06%
2nd month after acceleration
  Impurity A: Impurity A: 0.04%
  Impurity D: Impurity D: 0.02%
  Impurity L: Impurity L: 0.01%
  Total impurities: Total impurities: 0.07%
3rd month after acceleration
  Impurity A: Impurity A: 0.06%
  Impurity D: Impurity D: 0.01%
  Impurity L: Impurity L: 0.02%
  Total impurities: Total impurities: 0.08%
6th month after acceleration
  Impurity A: Impurity A: 0.06%
  Impurity C: Impurity C 0.03%
  Impurity D: Impurity D: 0.02%
  Impurity L: Impurity L: 0.02%
  Total impurities: Total impurities: 0.17%
  Maximum single impurity: impurity: 0.02%

## CC(C(=O)O)c1ccc2c(c1)Cc1cccnc1O2 (stereo not drawn) [Compound 20190202, pranoprofen]
0th month
  Impurity A: Impurity A: 0.02%
  Impurity D: Impurity D: 0.02%
  Impurity L: Impurity L: 0.01%
  Total impurities: Total impurities: 0.05%
1st month after acceleration
  Impurity A: Impurity A: 0.05%
  Impurity D: Impurity D: 0.01%
  Impurity L: Impurity L: 0.02%
  Total impurities: Total impurities: 0.06%
2nd month after acceleration
  Impurity A: Impurity A: 0.04%
  Impurity D: Impurity D: 0.02%
  Impurity L: Impurity L: 0.01%
  Total impurities: Total impurities: 0.07%
3rd month after acceleration
  Impurity A: Impurity A: 0.04%
  Impurity D: Impurity D: 0.02%
  Impurity L: Impurity L: 0.01%
  Total impurities: Total impurities: 0.07%
6th month after acceleration
  Impurity A: Impurity A: 0.09%
  Impurity C: Impurity C 0.01%
  Impurity D: Impurity D: 0.01%
  Impurity L: Impurity L: 0.02%
  Total impurities: Total impurities: 0.15%
  Maximum single impurity: impurity: 0.02%
